Data set [1] can be described thus: Methylene blue assay of HO• production (Fenton reaction). The note with it: pH 4, H2O2, same Fe content (36 µg Fe3+), UV-Vis every 5 min over 6 h. As to the method: MB assays were used to measure the HO^• production efficacy of IGPNs. IGPNs (36 µg Fe^3+) were mixed with MB (1.5 mL, 10 µg L^−1) and H2O2 (1 mL), and H2O was added to a final volume of 3 mL. The absorbance at 664 nm was recorded with a Cary 3500 UV–Vis Spectrophotometer every 5 min over 6 h.
To verify the hypothesized Fenton reaction of IGPNs, H2O2 was used as a source of hydroxyl radicals (HO^•) and to simulate the tumor microenvironment. The generation of HO^• and degradation of methylene blue (MB) upon exposure to H2O2 and different samples adjusted to the same Fe content (IGPNs or FeCl3 solution) was monitored by UV–Vis spectrometry. At pH 4 (Figure 7A), the decrease of absorbance at 664 nm was accelerated in the presence of Fe-A4**, FePVP-A4**, or Fe^3+. At the favorable acidic pH, no differences in reaction rates were observed between IGPNs and Fe^3+, since the content of Fe^3+ is obviously sufficient to drive the reaction under these conditions. In contrast, at pH 7.4, the absorbance decline was clearly more pronounced in case of IGPNs (Figure 7B). This phenomenon could be explained by an accelerated conversion of Fe^3+ to Fe^2+ in the presence of GA.

For another data set, the system named is HeLa cells. Description: Cell viability (CellTiter-Glo assay), HeLa. Format: cell-based, human. Particulars: 10 μM, 72 h. As for the experimental part:
The CellTiter-Glo® Luminescent Cell Viability Assay was performed to determine the viability of HeLa or N2a cells after treatment with IGPNs or the individual components. One day prior to the treatments, HeLa or N2a cells were seeded into 96-well plates at a density of 5000 cells/well. On the next day, the medium in each well was replaced with 90 μL of fresh medium, and 10 μL of nanoparticles or control solutions (free peptides, Fe, FePVP) was added to each well corresponding to the specified final concentrations of the peptide or Fe^3+, respectively. The supernatant was removed after 72 h incubation, and 25 µL of medium as well as 25 µL of CellTiter-Glo reagent were added to each well. The plate was gently agitated for 30 min at RT, and the luminescence signal (relative light units, RLU) was recorded by a Centro LB 960 plate reader luminometer (Berthold Technologies, Bad Wildbad, Germany). The relative cell viability (in percentage) was calculated relative to control wells treated with HBG buffer as ([RLU] test/[RLU] control) × 100%. All experiments were performed in triplicate.
On the technique in general: Cellular ATP, detected with luciferase, serves as a proxy for viable cell number.

Ends that are not written are not given here. Peptide text beside a SMILES is read from it.

As for `O.O.O.O.O.O.[Cl-].[Cl-].[Cl-].[Fe+3]` [Fe^3+, iron (III) chloride hexahydrate], the “decrease of methylene blue absorbance at 664 nm (HO• generation) at pH 4” value in data set [1] is on record as “accelerated”.

For the compound `NCCCC[C@H](NC(=O)[C@@H]1CCCN1C(=O)[C@@H](N)CCC(N)=O)C(=O)O` [SIO] (H-Gln-Pro-Lys-OH), the “cytotoxicity / tolerability in words” value with HeLa cells was “not able to mediate significant cytotoxicity”. On the same count and under the same terms, for AVPIAQK [AVP] the value was “not able to mediate significant cytotoxicity”.

(Values after PMC10385416, “Iron-Gallic Acid Peptide Nanoparticles as a Versatile Platform for Cellular Delivery with Synergistic ROS Enhancement Effect” (Pharmaceutics, 2023).)
